Measured values: the supplement of paper PMC13380429

Assays:
[1] = test system: A549-ACE2 infected with SARS-CoV-2; assay: cell count relative to DMSO; higher = less toxic; settings: 24 h
[2] = test system: Caco-2; assay: cell viability relative to DMSO; higher = less toxic; settings: 72 h
[3] = test system: Calu-3; assay: as above; settings: 72 h
[4] = test system: HepG2; assay: as above; settings: 72 h
[5] = test system: U2OS; assay: as above; settings: 72 h
[6] = test system: Vero E6; assay: as above; settings: 72 h
[7] = test system: A549-ACE2 infected with SARS-CoV-2; assay: SARS-CoV-2 infection rate relative to DMSO; higher = more infection; settings: 24 h
[8] = test system: A549-ACE2; assay: drug-induced phospholipidosis relative to tamoxifen; higher = more phospholipidosis
[9] = test system: A549-ACE2 infected with SARS-CoV-2; assay: morphology score (similarity to uninfected cells); higher = more like uninfected cells; settings: 24 h
[10] = test system: Caco-2; assay: relative viability EC50 (midpoint between 100% and the lowest measured viability); higher = less toxic; settings: 72 h
[11] = test system: Calu-3; assay: as above; settings: 72 h
[12] = test system: U2OS; assay: as above; settings: 72 h
[13] = test system: Vero E6; assay: as above; settings: 72 h
[14] = test system: Caco-2; assay: drug sensitivity score (DSS) for viability; higher = more toxic; extreme values may be limits of the assay; settings: 72 h
[15] = test system: Calu-3; assay: as above; settings: 72 h
[16] = test system: HepG2; assay: as above; settings: 72 h
[17] = test system: U2OS; assay: as above; settings: 72 h
[18] = test system: Vero E6; assay: as above; settings: 72 h
[19] = test system: A549-ACE2; assay: phospholipidosis EC50; higher = less potent phospholipidosis inducer
[20] = test system: HepG2; assay: relative viability EC50 (midpoint between 100% and the lowest measured viability); higher = less toxic; settings: 72 h

Cn1cc(-c2cnn3c(N)c(Br)c([C@@H]4CCCNC4)nc23)cn1
Settings | SARS-CoV-2 infection rate, [7] [%] | cell count, [1] [%] | cell viability, [2] [%] | cell viability, [3] [%] | cell viability, [4] [%] | cell viability, [5] [%] | cell viability, [6] [%] | morphology score, [9]
1 nM | – | – | 92.5 | 99.2 | 98.8 | 98.3 | 102 | –
10 nM | – | – | 100 | 95.1 | 101 | 92 | 102 | –
100 nM | – | – | 93.4 | 97.6 | 88.7 | 100 | 98.2 | –
0.3 µM | 102 | 99 | – | – | – | – | – | -0.17
1000 nM | – | – | 97.7 | 93.3 | 75 | 73.4 | 95.7 | –
3 µM | 87 | 110 | – | – | – | – | – | 0.41
10 µM | 50 | 106 | – | – | – | – | – | 0.67
10000 nM | – | – | 86.2 | 100 | 52 | 13.7 | 82.1 | –
30 µM | 13 | 79 | – | – | – | – | – | 0.84

drug-induced phospholipidosis [%], [8]
Settings | 0.3 µM | 0.833333 µM | 3.33333 µM | 6.66667 µM | 10 µM | 30 µM
24 h | 0.22 | 3.23 | 6.07 | 18.9 | 19.9 | 52.2
48 h | 3.9 | 4.18 | 8.86 | 16.4 | 18.3 | 60.6
72 h | 6.85 | 4.55 | 10.4 | 11.1 | 15.4 | –

Settings | drug sensitivity score | relative viability EC50 [µM]
[10] | – | > 10
[11] | – | > 10
[12] | – | 1.38
[13] | – | > 10
[14] | 0 | –
[15] | 0 | –
[16] | 5.7 | –
[17] | 8.7 | –
[18] | 0.9 | –

CN(C)C[C@H](O)Cn1c2ccc(Br)cc2c2cc(Br)ccc21 (racemic) [wiskostatin]
Settings | SARS-CoV-2 infection rate [%] | cell count [%] | cell viability [%] | morphology score | phospholipidosis EC50 [µM]
[1], 0.1 µM | – | 102 | – | – | –
[1], 0.3 µM | – | 100 | – | – | –
[1], 1 µM | – | 104 | – | – | –
[1], 3 µM | – | 119 | – | – | –
[2], 1 nM | – | – | 103 | – | –
[2], 10 nM | – | – | 105 | – | –
[2], 100 nM | – | – | 100 | – | –
[2], 1000 nM | – | – | 97.2 | – | –
[2], 10000 nM | – | – | 35 | – | –
[3], 1 nM | – | – | 110 | – | –
[3], 10 nM | – | – | 95.4 | – | –
[3], 100 nM | – | – | 123 | – | –
[3], 1000 nM | – | – | 104 | – | –
[3], 10000 nM | – | – | 20.7 | – | –
[4], 1 nM | – | – | 108 | – | –
[4], 10 nM | – | – | 105 | – | –
[4], 100 nM | – | – | 107 | – | –
[4], 1000 nM | – | – | 107 | – | –
[4], 10000 nM | – | – | 27.2 | – | –
[5], 1 nM | – | – | 103 | – | –
[5], 10 nM | – | – | 98.8 | – | –
[5], 100 nM | – | – | 104 | – | –
[5], 1000 nM | – | – | 99.4 | – | –
[5], 10000 nM | – | – | 70.1 | – | –
[6], 1 nM | – | – | 110 | – | –
[6], 10 nM | – | – | 110 | – | –
[6], 100 nM | – | – | 106 | – | –
[6], 1000 nM | – | – | 100 | – | –
[6], 10000 nM | – | – | 48.2 | – | –
[7], 0.1 µM | 107 | – | – | – | –
[7], 0.3 µM | 98 | – | – | – | –
[7], 1 µM | 87 | – | – | – | –
[7], 3 µM | 46 | – | – | – | –
[9], 0.1 µM | – | – | – | 0.02 | –
[9], 0.3 µM | – | – | – | 0.05 | –
[9], 1 µM | – | – | – | 0.24 | –
[9], 3 µM | – | – | – | 0.74 | –
[19], 24 h | – | – | – | – | 2.73
[19], 48 h | – | – | – | – | 3.44
[19], 72 h | – | – | – | – | 4.3

drug-induced phospholipidosis [%], [8]
Settings | 0.3 µM | 0.833333 µM | 3.33333 µM | 6.66667 µM | 10 µM
24 h | 5.24 | 11.9 | 79.4 | 108 | 120
48 h | 4.43 | 7.26 | 89.6 | 176 | 184
72 h | 2.67 | 8.55 | 92.3 | 196 | 231

Settings | drug sensitivity score | relative viability EC50 [µM]
[10] | – | 2.85
[11] | – | 3.47
[13] | – | 3.2
[14] | 3.9 | –
[15] | 4 | –
[16] | 3.5 | –
[17] | 1.4 | –
[18] | 2.7 | –
[20] | – | 3.62

Cc1ccccc1-n1c(Cn2ncc3c(N)ncnc32)nc2cccc(C)c2c1=O [PIK-293]
Settings | SARS-CoV-2 infection rate [%] | cell count [%] | cell viability [%] | morphology score | phospholipidosis EC50 [µM]
[1], 0.3 µM | – | 84 | – | – | –
[1], 3 µM | – | 98 | – | – | –
[1], 10 µM | – | 65 | – | – | –
[2], 1 nM | – | – | 101 | – | –
[2], 10 nM | – | – | 94.2 | – | –
[2], 100 nM | – | – | 91.1 | – | –
[2], 1000 nM | – | – | 95.8 | – | –
[2], 10000 nM | – | – | 89.9 | – | –
[3], 1 nM | – | – | 96.8 | – | –
[3], 10 nM | – | – | 90.5 | – | –
[3], 100 nM | – | – | 93 | – | –
[3], 1000 nM | – | – | 111 | – | –
[3], 10000 nM | – | – | 102 | – | –
[4], 1 nM | – | – | 95.5 | – | –
[4], 10 nM | – | – | 90 | – | –
[4], 100 nM | – | – | 104 | – | –
[4], 1000 nM | – | – | 95 | – | –
[4], 10000 nM | – | – | 99.4 | – | –
[5], 1 nM | – | – | 91.4 | – | –
[5], 10 nM | – | – | 100 | – | –
[5], 100 nM | – | – | 93.6 | – | –
[5], 1000 nM | – | – | 100 | – | –
[5], 10000 nM | – | – | 95.5 | – | –
[6], 1 nM | – | – | 102 | – | –
[6], 10 nM | – | – | 99 | – | –
[6], 100 nM | – | – | 105 | – | –
[6], 1000 nM | – | – | 101 | – | –
[6], 10000 nM | – | – | 104 | – | –
[7], 0.3 µM | 89 | – | – | – | –
[7], 3 µM | 27 | – | – | – | –
[7], 10 µM | 70 | – | – | – | –
[9], 0.3 µM | – | – | – | 0.21 | –
[9], 3 µM | – | – | – | 0.76 | –
[9], 10 µM | – | – | – | 0.02 | –
[19], 24 h | – | – | – | – | 2.86
[19], 48 h | – | – | – | – | 3.88

drug-induced phospholipidosis [%], [8]
Settings | 0.3 µM | 0.833333 µM | 3.33333 µM | 6.66667 µM | 10 µM
24 h | 2.65 | 16.4 | 52.5 | 87.2 | 81
48 h | 5.81 | 14 | 48.3 | 99.5 | –
72 h | 3.73 | 6.21 | – | – | –

Settings | drug sensitivity score | relative viability EC50 [µM]
[10] | – | > 10
[11] | – | > 10
[12] | – | > 10
[13] | – | > 10
[14] | 0 | –
[15] | 0 | –
[16] | 0 | –
[17] | 0 | –
[18] | 0 | –
[20] | – | > 10
